A short description of series [1]: LC-MS of aqueous solutions with and without PEG. Conditions: LC-MS over 7 days, not in solutions without PEG. Type of series: physicochemical. From the text: Since all analytical data for the originally employed inhibitors was consistent with the given structures, we postulate that the incorporation of an additional methylene group occurred via spontaneous Pictet-Spengler cyclization during crystallization. In line with this notion, PEG, which has been used in our soaking solutions, is known to generate formaldehyde traces that have been shown in the past to affect the derivatization of both, proteins and ligands. To further corroborate this hypothesis, we examined whether simple exposure of 29d/e to formaldehyde would give rise to the same Pictet-Spengler products 31a/b (Scheme 5). Indeed, when compounds 29d/e were treated with formaldehyde at room temperature 31a/b were formed readily and the obtained spectroscopic data was consistent with the predicted Pictet-Spengler products. In addition, aqueous solutions of 29d and 29e with and without PEG were analyzed by liquid chromatography-mass spectrometry (LC-MS) over a period of 7 days.
LC-MS was performed with a Bruker Esquire ~LC ion trap mass spectrometer (Bremen, Germany) in the positive ion mode (dry gas 9 L/min, nebulizer 35 psi, drying temperature 350 °C) after chromatographic separation using an Agilent 1100 HPLC system (Waldbronn, Germany) with a RP-8 column (Agilent Eclipse XDB-C8, 150 × 4.6 mm, 5 μm) and a 0.1% acetic acid/acetonitrile gradient.

The target in series [2] is T1, human CK1δ transcription variant 1 (Homo sapiens, UniProt P48730).
T1 construct: made in house; own knowledge
Description: in-vitro kinase assay CK1δ. As to conditions: 10 µM ATP, mean ± SD, n = 3. It counts as biochemical. From the text:
Human CK1δ transcription variant 1 (CK1δ TV1_NM_001893.4) has been amplified from the cDNA obtained from HT1080 cell line, using CK1δ_forward-primer: 5′-GGATCCATGGAGCTGAGAGTCGGGAACAG-3′ and CK1δ_reverse primer: 5′-GGATCCTCATCGGTGCACGACAGACTGA-3′. The CK1δ DNA construct was cloned into pSC-A cloning vector (Agilent technologies, Munich, Germany) with BamHI enzyme, to generate plasmids pGEX6-P3-GST-CK1δ TV1 (FP1417). Overexpression and purification of GST-CK1δ TV1 protein has been performed as described before.
(§1) In vitro kinase assays have been performed to both screen, as well as to calculate IC50 values of the compounds for CK1δ and ε. Each reaction was carried out using 2 μCi ^32P-γ-ATP in kinase buffer containing 25 mM Tris-HCl (pH = 7.5), 10 mM MgCl2, 100 µM EDTA, and 10 µM ATP. […] Recombinant human CK1δ transcription variant 1 (expressed and purified as GST fusion protein as described earlier) and human GST-CK1ε (PV3500; Invitrogen) were used as sources of enzyme, while α-casein (C6780; Sigma-Aldrich) was used as substrate. Kinase reactions were incubated for 30 min at 30 °C and then stopped with loading dye (50 mM Tris-HCl (pH = 6.8), 5% (v/v) β-mercaptoethanol (MSH), 10% (v/v) glycerol, 2% (w/v) sodium dodecyl sulfate (SDS), 0.1% (w/v) bromphenol blue). Subsequently, reactions were separated by sodium dodecyl sulfate polyacrylamide gel electrophoresis (SDS-PAGE) and phosphorylated protein bands were visualized on dried gels by autoradiography. The phosphorylated substrate protein bands were excised, and phosphorylation was quantified by Cherenkov counting. Dose-response analyses and calculation of IC50 values were carried out using GraphPad Prism 6 statistical software (San Diego, CA, USA).

The target in the next series is T2, human GST-CK1ε (Homo sapiens, UniProt P49674).
T2 construct: purchased Invitrogen PV3500
T2 sequence (P49674 whole entry): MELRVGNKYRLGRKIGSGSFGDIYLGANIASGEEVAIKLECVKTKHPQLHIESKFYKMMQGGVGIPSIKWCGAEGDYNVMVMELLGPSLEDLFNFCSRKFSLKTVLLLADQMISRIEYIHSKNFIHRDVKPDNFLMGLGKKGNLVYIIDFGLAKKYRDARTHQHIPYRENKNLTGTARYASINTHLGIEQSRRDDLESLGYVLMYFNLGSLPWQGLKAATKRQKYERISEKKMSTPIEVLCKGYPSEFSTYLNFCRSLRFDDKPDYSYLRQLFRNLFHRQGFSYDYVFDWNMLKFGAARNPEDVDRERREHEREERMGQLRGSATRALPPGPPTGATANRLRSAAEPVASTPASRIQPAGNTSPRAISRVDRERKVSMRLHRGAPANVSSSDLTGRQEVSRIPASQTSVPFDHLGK
Description: in-vitro kinase assay CK1ε. Type of series: biochemical. Conditions: 10 µM ATP, mean ± SD, n = 3. Here is the method: as §1

The next series deals with HT-29 cells. Description: MTT cell viability assay HT-29. Type of series: cell-based, human. Conditions: Homo sapiens, HT-29, 48 h, mean ± SD. Here is the method: The human colon adenocarcinoma cell line HT-29 was grown in McCoy’s 5A medium, whereas MCF7 cells were grown in DMEM medium. All media were supplemented with 10% fetal calf serum (FCS), 100 units/mL penicillin, 100 µg/mL streptomycin and 2 mM glutamine. All cells were grown at 37 °C in a humidified 5% carbon dioxide atmosphere.
In order to analyze the effects of selected inhibitors on the cell viability of HT-29 and MCF7 cells, MTT assays were performed. 1 × 10^4 cells/well were seeded in 96-well cell culture plates. After 24 h cells were treated with increasing concentrations of the indicated inhibitor compounds, with untreated and DMSO-treated cells as control. After an incubation period of 48 h, 10 µL of MTT solution (5 mg/mL in PBS) were added and cells were incubated for 4 h. MTT-containing medium was carefully removed and 100 µL acidic isopropanol (0.04 N HCl in isopropanol) per well were added. To dissolve formazan crystals, plates were shaken for 30 min on an orbital shaker in the dark. Finally, dissolved crystals were measured spectrophotometrically at 570 nm. All experiments were performed in triplicate with four technical replicates per assay. Results were normalized considering the mean optical density value of control wells as 100%. GraphPad Prism 6 software (San Diego, CA, USA) was used to calculate EC50 values.

Another series concerns the target T3, CHK2 (Homo sapiens, UniProt O96017).
T3 construct: purchased ProQinase
The series can be described thus: 33PanQinase panel. It counts as biochemical. As to conditions: CHK2, 1 µM; read-out: Residual Activity (%). Here is the method:
Figure 5 Dendrogram representation of the selectivity profile of 29d at a concentration of 1 μM in a panel of 320 wild-type kinases (ProQinase, Freiburg, Germany). The residual kinase activity was determined compared to DMSO control. Images were generated using TREEspot Software Tool, DISCOVERX CORPORATION 2010.
Figure S1. X-ray crystal structure of intermediate compound 25d (ORTEP drawing with ellipsoids at 30% probability). CCDC 1589043 contains the supplementary crystallographic data for this paper. The data can be obtained free of charge from The Cambridge Crystallographic Data Centre via www.ccdc.cam.ac.uk/structures.
Table S1 Data collection, structure refinement and Ramachrandran plot results of protein crystallization of CK1δ in complex with compound 30a and 30b, respectively.
Root-mean-square deviations
Additionally allowed 2.6 2.2
Table S2. Selectivity profile of compound 29d. The inhibitor has been screened at a concentration of 1 µM over a panel of 320 wild-type protein kinases by ProQinase GmbH (Freiburg, Germany) using an activity-based radiometric 33PanQinase® assay. Results are presented as percentage of residual kinase activity relative to […]
control. The final DMSO concentration was 1 % in each reaction-mix. Classification of protein kinase families refers to Manning et al. (Manning, G.; Whyte, D. B.; Martinez, R.; Hunter, T.; Sudarsanam, S. The Protein Kinase Complement of the Human Genome. Science 2002, 298, 1912–1934): AGC = containing PKA, PKG, PKC families; […] = containing Cdk, MAPK, GSK3, CLK families; STE = homologs of yeast sterile 7, sterile 11, sterile 20 kinases; TK = tyrosine kinase; TKL = tyrosine kinase-like.
Kinase name Kinase family Residual Activity (%)

T3 sequence (O96017 whole entry): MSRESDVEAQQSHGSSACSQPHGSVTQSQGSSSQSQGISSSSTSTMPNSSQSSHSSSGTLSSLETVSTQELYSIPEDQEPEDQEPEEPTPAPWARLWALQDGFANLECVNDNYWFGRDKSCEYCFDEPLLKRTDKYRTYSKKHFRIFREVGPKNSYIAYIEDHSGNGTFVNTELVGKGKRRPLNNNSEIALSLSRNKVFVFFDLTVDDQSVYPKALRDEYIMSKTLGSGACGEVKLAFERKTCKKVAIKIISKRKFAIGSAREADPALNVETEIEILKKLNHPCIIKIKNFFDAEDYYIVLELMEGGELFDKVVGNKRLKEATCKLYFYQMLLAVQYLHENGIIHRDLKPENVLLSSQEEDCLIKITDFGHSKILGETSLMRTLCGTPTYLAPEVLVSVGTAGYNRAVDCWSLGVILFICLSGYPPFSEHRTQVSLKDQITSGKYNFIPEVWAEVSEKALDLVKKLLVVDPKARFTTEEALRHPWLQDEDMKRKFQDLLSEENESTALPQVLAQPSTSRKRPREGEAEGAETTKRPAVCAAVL

As to `COc1ccc(-c2cc(C(=O)Nc3cc(-c4c(-c5ccc(F)cc5)noc4C(C)C)ccn3)n(CC3NCC(O)C3O)c2)cc1` (stereo not shown) [29d], in series [1], the “formation of Pictet-Spengler products in aqueous solution with PEG” value was “significant product formation”. Besides, the IC50 (as a rule, the midpoint of a concentration-inhibition curve) stood at 0.038 ± 0.003 µM in series [2] and 0.065 ± 0.012 µM at human GST-CK1ε. In addition, the remaining activity at 10 µM was 2.9 ± 0.3% in series [2] (10 µM compound, read-out: CK1δ Residual Activity [%] at 10 µM ± SD) and 12 ± 2% at human GST-CK1ε (10 µM compound, read-out: CK1ε Residual Activity [%] at 10 µM ± SD). In addition, the viability (commonly the share of living cells, or the viability signal relative to a control) at 5 µM in the series on HT-29 cells (5 µM) turned out to be 76 ± 13%. The compound also returned a viability at 10 µM with HT-29 cells (10 µM) of 51 ± 8%. The viability at 20 µM with HT-29 cells (20 µM) was determined as 14 ± 2%. The 50% effective concentration (EC50) (usually the concentration that produces a half-maximal response) in the series on HT-29 cells stood at 8000 ± 1700 nM. The remaining activity at 1 µM on CHK2 was 97%.

Values taken from article PMC6429214, “Design, Synthesis and Biological Evaluation of Isoxazole-Based CK1 Inhibitors Modified with Chiral Pyrrolidine Scaffolds” (Molecules, 2019).
